Data set [1] deals with SUDHL5. Description: Induction of cytotoxicity (CellTiter-Glo, 5 h), SUDHL5.
In data set [2] the target is MCL-1 (Homo sapiens, UniProt Q07820). Description: Protein-protein interaction assay MCL-1/Noxa BH3 peptide (MCL-1 assay), TR-FRET. Type of data set: binding. The note with it: MBP-MCL-1 / Noxa BH3-derived peptide, median. Here is the method: Protein-Protein Interaction Assay: MCL-1/Noxa BH3 Peptide (MCL-1 Assay) […]
In the assay 11 different concentrations of each compound (0.1 nM, 0.33 nM, 1.1 nM, 3.8 nM, 13 nM, 44 nM, 0.15 μM, 0.51 μM, 1.7 μM, 5.9 μM and 20 μM) were typically measured as duplicates in the same microtiter plate. For that, 100-fold concentrated DMSO solutions were prepared by serial dilutions (1:3.4) of a 2 mM stock solution in a clear, 384-well microtiter plate (Greiner Bio-One, Frickenhausen, Germany). From there, 50 ni were transferred in a dark test plate (Greiner Bio-One, Frickenhausen, Germany). The assay was initiated by addition of 2 μl of a 2.5-fold concentrated MBP-MCL-1 solution (usually for a 1 nM end concentration in 5 μl reaction volume) in aqueous assay buffer [50 mM Tris/HCl pH 7, 100 mM sodium chloride (NaCl), 50 mM potassium fluoride (KF), 0.005% Tween-20, 2 mM DTT, 0.1% bovine gamma globulin (BGG)] to the compounds in the assay plate. This was followed by a 10-minute incubation step at 22° C. for pre-equilibration of the putative complex between MBP-MCL-1 and the compounds. After that.
The mixture was incubated in the dark for one hour at 22° C. and then overnight at 4° C. The formation of MCL-1/Noxa complexes was determined by measuring the resonance energy transfer of the anti-MBP- Eu-cryptate antibody to the streptavidin-XL665 present in the reaction. For that purpose, the fluorescence emission at 620 nm and 665 nm after excitation at 330-350 nm was measured in a TR-FRET measuring instrument, for instance a Rubystar or a Pherastar (both from BMG Lab Technologies, Offenburg, Germany) or a Viewlux (Perkin-Elmer). The ratio of the emission at 665 nm and at 622 nm was used as indicator of the amount of MCL-1/NOXA complexes present.
The resulting data (ratio) were normalized, taking 0% inhibition as the mean value of control measurements (usually 32 data points) where all reagents were included. In this case 50 nl DMSO were used instead of compounds. A 100% inhibition corresponded to the mean value of control measurements (usually 32 data points) where all reagents except MCL-1 were included. IC50 values were determined by regression analysis based on a 4 parameter equation (minimum, maximum, IC50, Hill; Y=Max+(Min−Max)/(1+(X/IC50)^Hill) using the Screener Software (Genedata).
On the technique in general: Time-resolved FRET reads energy transfer from a long-lived donor to a nearby acceptor.

The subject of data set [3] is SUDHL5. Put plainly: Induction of caspase-3/7 activity (Caspase-Glo 3/7), SUDHL5. The note with it: caspase-3/7 induction, SUDHL5 cells, 3 h treatment, median. It is filed as cell-based. On the procedure:
(§1) Induction of Caspase-317 Activity Upon Treatment of Cells with Selected Compounds
(§2) The BH3-domain of MCL-1 sequesters pro-apoptotic proteins, thereby inhibiting apoptosis. In contrast, MCL-1 inhibitors are expected to antagonize this effect leading to an increase in apoptosis, which can be determined by measuring the activity of caspase-3/7.
(§3) The activity of caspase-3/7 was determined in DLBCL (Diffuse large B-cell lymphoma) cell lines (SUDHL5 and SUDHL10) upon treatment with different compounds, using the Caspase-Glo® 3/7 reagent from Promega (G8092).
(§4) Rim wells were excluded. The cells were incubated for 3 h hours in a humidified incubator at 37° C.
(§5) For the evaluation of the results, the background measured with “medium-only” was subtracted from all other values. […] The Bella DRC Master Sheet was used to calculate EC50s, with fixed C0=1 and CI=plateaulmax induction for the reference compound.

Data set [4] deals with SUDHL10. Put plainly: Induction of caspase-3/7 activity (Caspase-Glo 3/7), SUDHL10. It is filed as cell-based. Conditions: caspase-3/7 induction, SUDHL10 cells, 3 h treatment, median. Here is the method: as §1, §2, §3, §4, §5
The subject of data set [5] is SUDHL10. Description: Induction of cytotoxicity (CellTiter-Glo, 5 h), SUDHL10.
Procedure: Therefore, cytotoxicity assays were run in parallel in SUDHL5 and SUDHL10 cells.
The different cell lines were plated in culture medium (RPMI 1640 [GIBCO #22400-089]supplemented with 10% Fetal Bovine Serum) at a density of 3.300 cells in 30 μl/well in a sterile, solid black, flat bottom, polystyrene, TC-treated 384-well microplate (Corning #3571) using Multidrop Combi Reagent Dispenser. As a control, medium without cells was also added to the plate. Cells were incubated in a humidified incubator at 37° C. overnight. On the next day, the cells were treated with compounds (stock solution, 10 mM in DMSO) using the HP D300 Digital Dispenser in a concentration range of 3.3×10e-5 M (33 μM) to 5×10e-9 M (5 nM) in a single-dot curve with at least 16 dilutions and a DMSO concentration of 0.33%. Rim wells were excluded. The cells were incubated for 5 h hours in a humidified incubator at 37° C. After this incubation, 30 μl of CellTiter-Glo@ Luminescent Cell Viability reagent (Promega, G7573) was added to each well using the Multidrop Combi Reagent Dispenser, followed by 15 min incubation on a shaker at room temperature. Finally, luminescence was read at 0.1 ms, with a gain of 3000 using the PHERAstar FS microplate reader (BMG Labtech).
The Bella DRC Master Sheet was used to calculate IC50s, with fixed CI=0 and C0=1.
The subject of data set [6] is SUDHL5. Put plainly: Anti-proliferative effect (CellTiter-Glo, 72 h), SUDHL5. Type of data set: cell-based. The note with it: SUDHL5 cells, antiproliferation, 72 h incubation, median, read-out: Antiproli SUDHL5 [M] (median). Here is the method:
(§6) Assessment of the Anti-Proliferative Effect of Compounds in Different Cell Lines
(§7) The impact of compounds on the proliferation of different cell lines was assessed using the CellTiter-Glo® Luminescent Cell Viability reagent from Promega (G7573). Of note, SUDHL10 and SUDHL5 (DLBCL), NCI-H929 (Multiple Myeloma), A2780 (ovarian carcinoma) as well as MV-4-11(AML) cells are sensitive to MCL-1 inhibition.
(§8) In parallel, cells were plated in a reference (day 0) plate for time zero determination.
(§9) Rim wells were excluded. The cells were incubated for 72 h hours in a humidified incubator at 37° C. The day 0 plate was measured by adding 30 μl/well of CTG solution (CellTiter-Glo® Luminescent Cell Viability reagent, Promega G7573) to time zero wells in the reference plate followed by a 10 minutes incubation and luminescence reading at 0.1 ms, using the PHERAstar FS microplate reader (BMG Labtech).
(§10) After 72 h incubation, the treated plates were measured in the same way as the day 0 plate mentioned above.
Background: Cellular ATP, detected with luciferase, serves as a proxy for viable cell number.

Data set [7] concerns A2780. Put plainly: Anti-proliferative effect (CellTiter-Glo, 72 h), A2780. It is filed as cell-based. Conditions: A2780 cells, median, read-out: IC50 antiproliferation assay A2780 [M] (median). Here is the method: as §6, §7, §8, §9, §10
[8] abbreviates: Homo sapiens, SU-DHL-5, 5 h, read-out: Cytotox SUDHL5 [M] (median), SUDHL5 cells, cytotoxicity induction, CellTiter-Glo, 5 h incubation, median.
Setting [9] is: Homo sapiens, SU-DHL10, 5 h, read-out: Cytotox SUDHL10 [M] (median), SUDHL10 cells, cytotoxicity induction, CellTiter-Glo, 5 h incubation, median.
[10] abbreviates: read-out: Cytotox SUDHL5 [M] (median), SUDHL5 cells, cytotoxicity induction, CellTiter-Glo, 5 h incubation, median.

Like-named read-outs stand apart in the source and are kept apart here. Where only a bound is given, the exact number is not on record here.

One may read the EC50 as the concentration that produces a half-maximal response.

Sequence of MCL-1 (Q07820 whole entry): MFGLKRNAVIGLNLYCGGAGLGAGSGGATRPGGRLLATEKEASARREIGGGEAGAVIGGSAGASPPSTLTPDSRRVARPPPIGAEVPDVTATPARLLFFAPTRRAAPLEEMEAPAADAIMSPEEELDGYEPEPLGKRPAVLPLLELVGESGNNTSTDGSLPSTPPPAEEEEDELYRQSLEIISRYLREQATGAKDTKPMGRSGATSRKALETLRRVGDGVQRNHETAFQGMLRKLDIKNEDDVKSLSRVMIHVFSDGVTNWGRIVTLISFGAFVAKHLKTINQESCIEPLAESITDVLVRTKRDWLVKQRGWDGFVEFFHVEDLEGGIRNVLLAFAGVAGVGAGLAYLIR

On to `Cn1nc(COc2ccc(N3CCN(C(=O)OC(C)(C)C)CC3)cc2)c2c1COCCCCn1c(C(=O)O)c(CCCOc3cccc4ccccc34)c3cccc-2c31` (racemic) [Example 1-6, (rac)-3-({4-[4-(tert-butoxycarbonyl)piperazin-1-yl]phenoxy}methyl)-1-methyl-7-[3-(naphthalen-1-yloxy)propyl]-1,10,11,12,13,15-hexahydropyrazolo[4′,3′:9,10][1,6]oxazacycloundecino[8,7,6-hi]indole-8-carboxylic Acid], for which the IC50 is 1.15e-05 M in data set [1] (setting [8]); 0.0187 µM in data set [2]; over 3.3e-05 M in data set [5] (setting [9]); 1.37e-06 M in data set [6] (Homo sapiens, SU-DHL-5, 72 h). In addition, the EC50 stood at 7.67 µM in data set [3] (Homo sapiens, SU-DHL-5, 3 h) and 11.9 µM in data set [4] (Homo sapiens, SU-DHL10, 3 h).
Turning to `Cn1nc(COc2ccc(C3(O)CCOCC3)cc2)c2c1COCCCCn1c(C(=O)O)c(CCCOc3cccc4ccccc34)c3cccc-2c31` (racemic) [Example 1-61, (rac)-3-{[4-(4-hydroxytetrahydro-2H-pyran-4-yl)phenoxy]methyl}-1-methyl-7-[3-(naphthalen-1-yloxy)propyl]-1,10,11,12,13,15-hexahydropyrazolo[4′,3′:9,10][1,6]oxazacycloundecino[8,7,6-hi]indole-8-carboxylic Acid], the IC50 in data set [1] (setting [8]) was found to be 1.33e-05 M; in data set [2], 0.00293 µM; in data set [5] (setting [9]), 2.11e-05 M; in data set [6] (Homo sapiens, SU-DHL-5, 72 h) it was 5.41e-06 M. Also, the EC50 in data set [3] (Homo sapiens, SU-DHL-5, 3 h) stood at 6.16 µM; in data set [4] (Homo sapiens, SU-DHL10, 3 h), 10.7 µM.
For the molecule `COC1(c2ccc(OCc3nn(C)c4c3-c3cccc5c(CCCOc6cccc7ccccc67)c(C(=O)O)n(c35)CCCCOC4)cc2)CCOCC1` (racemic) [Example 1-65, (rac)-3-{[4-(4-methoxytetrahydro-2H-pyran-4-yl)phenoxy]methyl}-1-methyl-7-[3-(naphthalen-1-yloxy)propyl]-1,10,11,12,13,15-hexahydropyrazolo[4′,3′:9,10][1,6]oxazacycloundecino[8,7,6-hi]indole-8-carboxylic Acid], the IC50 in data set [1] (setting [8]) was over 3.3e-05 M; in data set [2], 0.031 µM; in data set [5] (setting [9]), 3.13e-05 M; in data set [6] (Homo sapiens, SU-DHL-5, 72 h) it was 3.71e-06 M. For the same molecule, the EC50 in data set [3] (Homo sapiens, SU-DHL-5, 3 h) stood at 16.3 µM; in data set [4] (Homo sapiens, SU-DHL10, 3 h), 17.5 µM.
Take `Cn1nc(CO)c2c1COCCCCn1c(C(=O)O)c(CCCOc3cccc4ccccc34)c3cccc-2c31` (racemic) [Example 1-95, (rac)-3-(hydroxymethyl)-1-methyl-7-[3-(naphthalen-1-yloxy)propyl]-1,10,11,12,13,15-hexahydropyrazolo[4′,3′:9,10][1,6]oxazacycloundecino[8,7,6-hi]indole-8-carboxylic Acid]: the IC50 in data set [1] (setting [8]) is 1.98e-05 M; in data set [2], 0.0039 µM; in data set [5] (setting [9]), over 3.3e-05 M; in data set [6] (Homo sapiens, SU-DHL-5, 72 h), 4.8e-06 M. Moreover, the EC50 in data set [3] (Homo sapiens, SU-DHL-5, 3 h) came to 10.8 µM; in data set [4] (Homo sapiens, SU-DHL10, 3 h) it was 22.7 µM.
For `Cc1c2c(nn1CC(F)(F)F)COC/C=C\Cn1c(C(=O)O)c(CCCOc3cccc4ccccc34)c3cccc-2c31` (racemic) [Example 091, (rac)-(11Z)-3-methyl-7-[3-(naphthalen-1-yloxy)propyl]-2-(2,2,2-trifluoroethyl)-2,10,13,15-tetrahydropyrazolo[4′,3′:9,10][1,6]oxazacycloundecino[8,7,6-hi]indole-8-carboxylic Acid], the IC50 in data set [7] (Homo sapiens, A2780, 72 h) came to 7.1e-06 M; in data set [1] (setting [8]) it was 1.48e-05 M; in data set [2] it was 0.0202 µM; in data set [5] (setting [9]), 1.89e-05 M; in data set [6] (Homo sapiens, SU-DHL-5, 72 h), 6.92e-06 M. Moreover, the EC50 in data set [3] (Homo sapiens, SU-DHL-5, 3 h) came out at 23.5 µM; in data set [4] (Homo sapiens, SU-DHL10, 3 h) it was 31.8 µM.
On to `COCCn1nc(C2CC2)c2c1COCCCCn1c(C(=O)O)c(CCCOc3cccc4ccccc34)c3cccc-2c31` (racemic) [Example 102, (rac)-3-Cyclopropyl-1-(2-methoxyethyl)-7-[3-(naphthalen-1-yloxy)propyl]-1,10,11,12,13,15-hexahydropyrazolo[4′,3′:9,10][1,6]oxazacycloundecino[8,7,6-hi]indole-8-carboxylic Acid], for which the IC50 in data set [7] (Homo sapiens, A2780, 72 h) is over 3.3e-05 M; in data set [1] (setting [8]), 6.12e-06 M; in data set [2] it was 0.00682 µM; in data set [5] (setting [9]), over 3.3e-05 M; in data set [6] (Homo sapiens, SU-DHL-5, 72 h), 1.32e-05 M. Also, the EC50 in data set [3] (Homo sapiens, SU-DHL-5, 3 h) was 8.26 µM; in data set [4] (Homo sapiens, SU-DHL10, 3 h), over 33 µM.
`Cn1nc(COC2CC2)c2c1COCCCCn1c(C(=O)O)c(CCCOc3cccc4ccccc34)c3cccc-2c31` (single isomer, unassigned) [Example 214, 3-[(cyclopropyloxy)methyl]-1-methyl-7-[3-(naphthalen-1-yloxy)propyl]-1,10,11,12,13,15-hexahydropyrazolo[4′,3′:9,10][1,6]oxazacycloundecino[8,7,6-hi]indole-8-carboxylic Acid]: the IC50 was over 3.3e-05 M in data set [7]; 2.9e-05 M in data set [7] (Homo sapiens, A2780, 72 h); 1.14e-05 M in data set [1] (setting [10]); 0.00524 µM in data set [2]; 9.08e-06 M in data set [6] (Homo sapiens, SU-DHL-5, 72 h). Further, the EC50 in data set [3] is 14.9 µM; in data set [4] (Homo sapiens, SU-DHL10, 3 h) it was 20.7 µM; in data set [4], over 33 µM.
For the molecule `CN(C)S(=O)(=O)N1CCN(c2ccc(OCc3nn(C)c4c3-c3cccc5c(CCCOc6cccc7ccccc67)c(C(=O)O)n(c35)CCCCOC4)cc2)CC1` (single isomer, unassigned; enantiomer 1) [Example 1-19, 3-({4-[4-(dimethylsulfamoyl)piperazin-1-yl]phenoxy}methyl)-1-methyl-7-[3-(naphthalen-1-yloxy)propyl]-1,10,11,12,13,15-hexahydropyrazolo[4′,3′:9,10][1,6]oxazacycloundecino[8,7,6-hi]indole-8-Carboxylic acid (Enantiomer 1)], the IC50 was 2.7e-05 M in data set [1] (setting [10]); 0.0527 µM in data set [2]; 2.52e-05 M in data set [5] (read-out: Cytotox SUDHL10 [M] (median), SUDHL10 cells, cytotoxicity induction, CellTiter-Glo, 5 h incubation, median); 5.87e-06 M in data set [6]. In addition, the EC50 was determined as 17.2 µM in data set [3] and 20.6 µM in data set [4].
